{"source": "paper PMC12583827", "about": "“Harnessing microbial-derived metabolites in the urinary tract to prevent infection induced catheter encrustation” (Nature Communications, 2025)", "key": {"[1]": {"parameters": "method as in PMID 9792207", "conditions": "administered into the lateral ventricle; cited from earlier work"}, "[2]": {"assay": "Buffering capacity assay (NaOH titration, phenol red)", "type": "physicochemical", "conditions": "high concentrations of metabolite in potassium phosphate buffer with phenol red", "experimental": "Known concentrations of sodium hydroxide were added to each well of a 96 well plate in combination with candidate dampening metabolite of interest buffered 1:10 in potassium phosphate buffer pH7. 0.01% phenol red was added to each well, and absorbance (OD562) was measured in a Synergy H1 plate reader (BioTek)."}, "P. mirabilis": {"system": "P. mirabilis", "assay": "Growth and viability of P. mirabilis incubated in dampening metabolites", "type": "cell-based, Proteus mirabilis", "experimental": "345 Supplementary Figure 5. Growth and viability of P. mirabilis incubated in dampening\n346 metabolites. (A-B) P. mirabilis was cultured for ~18 hours in LB broth, then diluted 1:100 into\n347 fresh LB broth with (A) the highest concentration of each dampening metabolites that was tested\n348 for urease-dampening activity or (B) serial dilutions of D-imidazole lactate. Bacterial\n349 suspensions were incubated at 37 °C with double-orbital shaking, and OD600 was measured\n350 every 15 minutes for 18 hours. Representative growth curves (A-B) show means and standard\n351 deviations from three technical replicates. (C-E) Viability of P. mirabilis incubated in serial\n352 dilutions of D-imidazole lactate. Overnight cultures were subcultured to mid log phase, washed\n353 in potassium phosphate buffer, and diluted 1:10 in either (C,D) potassium phosphate buffer or\n354 human urine (E) with and without D-imidazole lactate. Samples were incubated at 37°C with\n(1 picture or pasted object on this page, not shown here)"}, "UTI MRSA urease": {"system": "UTI MRSA urease", "assay": "UTI MRSA urease activity assay", "type": "cell-based, Staphylococcus aureus", "conditions": "whole cell, urease broth", "experimental": "190 Omega and visualization was carried out using ESPript 3.0 (69), enabling comparison across\n191 different clinical isolates. Urease genes, including the full operon from ureA to ureR, were\n192 identified and extracted from the prokka annotated genomes. The extracted protein sequences\n193 were subjected to sequence alignment using Clustal Omega and visualization was carried out\n194 using ESPript 3.0 [8], enabling comparison across different clinical isolates.\n195 UTI MRSA urease activity assay. The UTI MRSA urease assay was adapted from a recently-\n196 published semi quantitative assay to measure urease activity in bacterial species with low overall\n197 activity under standard conditions (50). Dampening metabolites were directly dissolved in urease\n198 broth (1 g tryptone (RPI; CAS No. 91079-40-2), 1 g D(+)-glucose (RPI; CAS No. 50-99-7), 2 g\n199 potassium phosphate monobasic anhydrous (VWR; Lot: 20C1356567), 5 g sodium chloride\n201 of MilliQ water, pH 5.5, sterilized via autoclaving). UTI MRSA strains from overnight cultures\n202 were harvested by centrifugation for 5 minutes at 10,000 g, washed with 1 volume of 1X\n203 Phosphate Buffered Saline (PBS), and resuspended in urease broth. Bacterial cultures were […]\n205 measured at 415 nm, 560 nm, and 600 nm every 20 mins for 24 hours, shaking at 37°C using a\n206 BioTek Synergy|H1 microtiter plate reader. Urease activity was calculated by dividing the OD […]"}, "M. morganii urease": {"system": "M. morganii urease", "assay": "Urease activity assay, whole cell M. morganii TA43", "type": "cell-based, Morganella morganii", "quoted_text": "(§1) Urease activity was measured as described previously in triplicate with at least three biological replicates[21]. Briefly, bacteria were cultured for ~18 h in LB broth, concentrated to an OD600 of 4, washed once in saline, and diluted (1:10 for P. mirabilis and 1:50 for P. stuartii and M. morganii) into candidate dampening metabolites in potassium phosphate buffer or human urine pH7 and supplemented with 500 mM urea and 0.01% phenol red. Bacterial suspensions were distributed into a 96-well plate, incubated at 37 °C with double-orbital shaking in a Synergy H1 plate reader (BioTek), and absorbance (OD562) was measured every 60 seconds for 180 minutes. Isogenic urease mutants (Supplementary Data 1) served as negative controls for P. mirabilis and P. stuartii and a vehicle control served as a negative control for M. morganii."}, "[3]": {"system": "P. mirabilis urease operon (ureABC, ureEDF)", "assay": "Real-time quantitative PCR of urease operon", "type": "cell-based, Proteus mirabilis", "experimental": "P. mirabilis was cultured for ~18 h in LB broth and then sub cultured until it reached mid-log growth phase (OD600 0.2-0.5). Cultures were spun down to pellet at 10,000 rcf for 10 minutes and resuspended in saline to a final OD600 of 1.0. Cultures were then diluted 1:10 into dampening metabolites buffered 1:10 in potassium phosphate buffer pH7 and supplemented with 500 mM urea. P. mirabilis in potassium phosphate buffer without urea served as a negative control. Cultures were incubated in potassium phosphate buffer with and without dampening metabolites at 37 °C with shaking for 15 minutes. RNA isolation, cDNA synthesis and RT qPCR were performed as described previously. […] A RNA integrity analysis using agarose gel electrophoresis on extracted RNA was performed for all samples to confirm no change in transcript stability (Supplementary Fig 16A). The data were analyzed according to the Relative Quantification (RQ) method by Pfaffl et al. 2001[54] (See Supplementary Information).\n168 Real-time quantitative PCR analysis. The data were analyzed according to the Relative\n169 Quantification (RQ) method by Pfaffl et al 2001 (56) in which P. mirabilis potassium phosphate\n170 buffer without urea was considered as the ‘Control’ and P. mirabilis in potassium phosphate\n171 buffer supplemented with 500mM urea with and without candidate dampening compounds were\n172 the ‘Sample.’ The full equation is below.\n(E )ΔCPtarget (control−sample)\n174 Relative Quantification Ratio = target Equation 2\n(Ereference)ΔCPreference (control−sample)\n176 In this equation, E refers to the primer efficiency of the target gene (Etarget, urease operon\n177 subunits) or the reference gene (Ereference, rpoA), and CP refers to the Cycle Point, or the cycle\n178 number at which the signal exceeds the threshold. […]\n183 for whole genome sequencing on the Illumina NextSeq2000 platform. Read trimming, and run\n184 analytics were performed using Trimmomatic v0.39.0 (62). The processed reads were assembled\n185 using spades v3.15.5 (63) wrapped in Unicycler v0.5.0 (64, 65). Read mapping was done using […]"}, "isolated rabbit bladders": {"system": "isolated rabbit bladders", "conditions": "cited from earlier work"}, "P. mirabilis urease": {"system": "P. mirabilis urease", "conditions": "104V0, 106V15, HU1069 compared with HI4320", "quoted_text": "as §1"}}, "note": "Structures can show the parent of a compound that is named as a salt."}
{"smiles": "Cl.O=C(O)Cc1cnc[nH]1", "note": "[4-imidazole acetate, 2-(1H-Imidazol-5-yl)acetic acid hydrochloride]", "values": [{"measurement": "blood pressure in cats", "setting": "[1]", "value": "dose-dependent decrease in blood pressure"}, {"measurement": "buffering capacity: absorbance (OD562) across NaOH concentrations", "setting": "[2]", "value": "consistent reduction in absorbance compared to the control"}]}
{"smiles": "O.O=C(O)[C@H](O)Cc1cnc[nH]1", "note": "[D-imidazole lactate, D-imidazolelactic acid hydrate]", "values": [{"measurement": "Growth of P. mirabilis in LB broth", "setting": "P. mirabilis; LB broth, 18 hours, OD600", "value": "perturbed"}, {"measurement": "antimicrobial activity against P. mirabilis", "setting": "P. mirabilis; incubation in human urine", "value": "less-pronounced activity"}, {"measurement": "antimicrobial activity against P. mirabilis", "setting": "P. mirabilis; incubation in potassium phosphate", "value": "robust antimicrobial activity"}, {"measurement": "urease activity in MRSA", "setting": "UTI MRSA urease", "value": "least potent"}, {"measurement": "urease activity in M. morganii", "setting": "M. morganii urease", "value": "most potent urease inhibition"}, {"measurement": "relative expression of urease mRNA transcripts", "setting": "[3]; 15-minute incubation, 500 mM urea", "value": "decreased"}, {"measurement": "pool of rpoA mRNA transcripts", "setting": "[3]; 15 minutes incubation", "value": "did not affect"}]}
{"smiles": "NCCc1c[nH]cn1", "note": "[Histamine, histamine dihydrochloride]", "values": [{"measurement": "response of isolated rabbit bladders", "setting": "isolated rabbit bladders", "value": "induce a contractile response"}, {"measurement": "urease-dampening activity against P. mirabilis clinical isolates", "setting": "P. mirabilis urease", "value": "slightly less potent"}]}
